Laboratory results taken from patent US4459290A, “C-23-Modified derivatives of OMT, pharmaceutical compositions and method of use” (priority 1982, dated 1984).
Converted amounts (≈) assume the structure as drawn. Read-outs that look alike come from different tables or passages of the source.

Legend:
[1] = system: Haemophilus influenzae Holt; test: MIC, standard agar-dilution assay (Table V); type: cell-based; details: Haemophilus influenzae
Experimental: (§1) The MIC's in Tables V and VI were determined by standard agar-dilution assays. The MIC's in Table VII were obtained using a conventional broth-dilution microtiter test.

[2] = system: Haemophilus influenzae R252; test: MIC, standard agar-dilution assay (Table V); type: cell-based; details: Haemophilus influenzae, R252
Experimental: as §1

Escherichia coli TEM = test: MIC, standard agar-dilution assay (Table V); type: cell-based; details: Escherichia coli
Experimental: as §1

[3] = system: Streptococcus pyogenes C203; test: MIC, standard agar-dilution assay (Table V); type: cell-based; details: Streptococcus pyogenes, C203
Experimental: as §1

[4] = system: Streptococcus pyogenes C203; test: ED50 in mice experimentally infected with S. pyogenes C203 (Table VIII); type: in vivo
Experimental: The C-23 modified derivatives of OMT of this invention have shown in vivo antimicrobial activity against experimental infections. When two doses of test compound were administered to mice experimentally infected with a gram-positive bacterium, S. pyogenes C203, the activity observed was measured as an ED50 value [effective dose in mg/kg to protect 50% of the test animals: see Warren Wick, et al., J. Bacteriol. 81, 233-235 (1961)].

[5] = system: Staphylococcus aureus X1.1; test: MIC, standard agar-dilution assay (Table V); type: cell-based; details: Staphylococcus aureus, X1.1
Experimental: (§2) Especially noteworthy is the improved activity against gram-negative bacteria for several derivatives when compared to the activity of OMT. […] The MIC's in Tables V and VI were determined by standard agar-dilution assays. The MIC's in Table VII were obtained using a conventional broth-dilution microtiter test.

Shigella sonnei N9 = test: MIC, standard agar-dilution assay (Table V); type: cell-based
Procedure, shortened: (§3)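 Growth inhibition in liquid medium, in a routine microtiter broth-dilution series, gave the MIC against staphylococci and pasteurellae; the gram-negative enteric strain was tested by conventional agar dilution instead.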

[6] = system: Streptococcus Group D X66; test: MIC, standard agar-dilution assay (Table V); type: cell-based
Experimental: as §2

Escherichia coli N10 = test: MIC, standard agar-dilution assay (Table V); type: cell-based; details: Escherichia coli
Procedure, shortened: as §3

[7] = system: Klebsiella pneumoniae KAE; test: MIC, standard agar-dilution assay (Table V); type: cell-based; details: Klebsiella pneumoniae
Procedure, shortened: as §3

[8] = system: Klebsiella pneumoniae X26; test: MIC, standard agar-dilution assay (Table V); type: cell-based; details: Klebsiella pneumoniae, X26
Experimental: as §2

[9] = system: Staphylococcus epidermidis EPI1; test: MIC, standard agar-dilution assay (Table V); type: cell-based; details: Staphylococcus epidermidis
Experimental: as §2

[10] = system: Staphylococcus aureus X400; test: MIC, standard agar-dilution assay (Table V); type: cell-based; details: Staphylococcus aureus
Experimental: as §2

[11] = system: Staphylococcus epidermidis EPI2; test: MIC, standard agar-dilution assay (Table V); type: cell-based; details: Staphylococcus epidermidis; S. epidermidis EPI2; agar dilution; read-out: MIC
Experimental: as §2

Streptococcus Group 9960 = test: MIC, standard agar-dilution assay (Table V); type: cell-based; details: GROUP9960; Streptococcus Group 9960; agar dilution; read-out: MIC
Experimental: as §2

Escherichia coli EC14 = test: MIC, standard agar-dilution assay (Table V); type: cell-based; details: Escherichia coli
Procedure, shortened: as §3

[12] = system: Staphylococcus aureus S13E; test: MIC, standard agar-dilution assay (Table V); type: cell-based; details: Staphylococcus aureus, S13E
Experimental: as §2

[13] = system: Staphylococcus aureus V41; test: MIC, standard agar-dilution assay (Table V); type: cell-based; details: Staphylococcus aureus
Experimental: as §2

these strains = test: Activity against the strains of Table VI, agar-dilution; type: cell-based; details: at the levels tested
Experimental: as §2

Mycoplasma synoviae = test: MIC, broth-dilution microtiter test (Table VII); type: cell-based; details: Mycoplasmopsis synoviae; M. synoviae; broth-dilution microtiter; read-out: MIC
Experimental: as §2

[14] = system: Pasteurella hemolytica 22C; test: MIC, broth-dilution microtiter test (Table VII); type: cell-based; details: Pasteurella, P. hemolytica 22C, read-out: MIC
Procedure, shortened: (§4)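 Conventional dilution MICs: agar for Enterobacter, microtiter broth for Staphylococcus and Pasteurella.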

Staphylococcus aureus = test: MIC, broth-dilution microtiter test (Table VII); type: cell-based; details: Staphylococcus aureus; S. aureus; broth-dilution microtiter; read-out: MIC
Procedure, shortened: (§5)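 Each MIC derives from a dilution series, either on solid agar (Enterobacter aerogenes) or in liquid broth within microtiter plates (staphylococcal and Pasteurella strains).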

[15] = system: Pasteurella hemolytica 23C; test: MIC, broth-dilution microtiter test (Table VII); type: cell-based; details: Pasteurella, P. hemolytica 23C, read-out: MIC
Procedure, shortened: as §4

Streptococcus sp. 80 = test: MIC, broth-dilution microtiter test (Table VII); type: cell-based; details: Streptococcus sp. 80; broth-dilution microtiter; read-out: MIC
Experimental: as §2

Mycoplasma hyorhinis = test: MIC, broth-dilution microtiter test (Table VII); type: cell-based; details: M. hyorhinis; broth-dilution microtiter; read-out: MIC
Experimental: as §2

[16] = system: Pasteurella multocida 68C; test: MIC, broth-dilution microtiter test (Table VII); type: cell-based; details: Pasteurella multocida; P. multocida 68C; broth-dilution microtiter; read-out: MIC
Procedure, shortened: as §5

[17] = system: Pasteurella multocida 60A; test: MIC, broth-dilution microtiter test (Table VII); type: cell-based; details: Pasteurella multocida; P. multocida 60A, avian isolate; broth-dilution microtiter; read-out: MIC
Procedure, shortened: as §5

[18] = system: Pasteurella hemolytica 41D; test: MIC, broth-dilution microtiter test (Table VII); type: cell-based; details: Pasteurella, P. hemolytica 41D, read-out: MIC
Procedure, shortened: as §4

[19] = system: Pasteurella multocida 17E; test: MIC, broth-dilution microtiter test (Table VII); type: cell-based; details: Pasteurella multocida; P. multocida 17E, bovine isolate; broth-dilution microtiter; read-out: MIC
Procedure, shortened: as §5

[20] = system: Pasteurella multocida 40G; test: MIC, broth-dilution microtiter test (Table VII); type: cell-based; details: Pasteurella multocida; P. multocida 40G; broth-dilution microtiter; read-out: MIC
Procedure, shortened: as §5

[21] = system: Pasteurella multocida 22A; test: MIC, broth-dilution microtiter test (Table VII); type: cell-based; details: Pasteurella multocida; P. multocida 22A; broth-dilution microtiter; read-out: MIC
Procedure, shortened: as §5

Mycoplasma gallisepticum = test: MIC, broth-dilution microtiter test (Table VII); type: cell-based; details: Mycoplasmoides gallisepticum; M. gallisepticum; broth-dilution microtiter; read-out: MIC
Experimental: as §2

Pasteurella multocida = test: Protection of one-day-old chicks against Pasteurella multocida infection (Table IX); type: in vivo; details: subcutaneous 30 mg/kg × 2, 1 and 4 hours post-challenge
Experimental: The C-23 modified derivatives of OMT have also shown in vivo antibacterial activity against infections induced by gram-negative bacteria. Table IX summarizes the results of tests in which illustrative compounds were evaluated against Pasteurella infections in one-day-old chicks. The compounds were administered by subcutaneous injection at a dosage of 30 mg/kg, 1 and 4 hours post-challenge of the chicks with Pasteurella multocida (0.1 ml of a twenty-hour tryptose broth culture of an avian P. multocida given subcutaneously). In the tests, all ten non-medicated infected chicks died within 24 hours of Pasteurella challenge.

[22] = system: Streptococcus pneumoniae Park I; test: microbe, parasite or virus in culture; type: cell-based; details: Streptococcus pneumoniae; read-out: MIC
Experimental: as §2

[23] = C203, sc, mice, subcutaneous, doses given 1 and 4 hours postinfection, read-out: ED50, Subcutaneous

Row | SMILES | MIC [1] [µg/mL] | MIC [2] [µg/mL] | MIC (Escherichia coli TEM) [µg/mL] | MIC [3] [µg/mL] | ED50 ([4]; C203, po, read-out: ED50, Oral) [mg/kg] | ED50 [4, 23] [mg/kg] | MIC [5] [µg/mL] | MIC (Shigella sonnei N9) [µg/mL] | MIC [8] [µg/mL] | MIC [11] [µg/mL] | MIC (Streptococcus Group 9960) [µg/mL] | MIC [12] [µg/mL] | activity against these strains (these strains) | MIC (Mycoplasma synoviae) [µg/mL] | MIC [14] [µg/mL] | MIC (Staphylococcus aureus) [µg/mL] | MIC [15] [µg/mL] | MIC (Streptococcus sp. 80) [µg/mL] | MIC (Mycoplasma hyorhinis) [µg/mL] | MIC [16] [µg/mL] | also measured
1 | CCC1OC(=O)CC(O)C(C)C(OC2OC(C)C(O)C(N(C)C)C2O)C(CC=O)CC(C)C(=O)C=CC(C)=CC1CSc1n[nH]c(=O)c(=O)n1C (centres unmarked) [Compound 6, 23-Deoxo-23-(1H-5,6-dioxo-4-methyl-1,2,4-triazin-3-yl)thio-OMT] | 32 (≈ 43.3 µM) | 32 (≈ 43.3 µM) | > 128 | 1 (≈ 1.35 µM) | > 100 | 13.6 | 4 (≈ 5.41 µM) | > 128 | 64 (≈ 86.6 µM) | 8 (≈ 10.8 µM) | 16 (≈ 21.7 µM) | 4 (≈ 5.41 µM) | did not show activity | 3.12 (≈ 4.22 µM) | 50 (≈ 67.7 µM) | 12.5 (≈ 16.9 µM) | 50 (≈ 67.7 µM) | 6.25 (≈ 8.46 µM) | 25 (≈ 33.8 µM) | 25 (≈ 33.8 µM) | MIC [6]: 16 µg/mL (≈ 21.7 µM); MIC (Escherichia coli N10; N10): > 128 µg/mL; MIC [7]: > 128 µg/mL; MIC ([9]; EPI1): 4 µg/mL (≈ 5.41 µM); MIC ([10]; X400): 8 µg/mL (≈ 10.8 µM); MIC (Escherichia coli EC14; EC14): > 128 µg/mL; MIC ([13]; V41): 4 µg/mL (≈ 5.41 µM); MIC [17]: 25 µg/mL (≈ 33.8 µM); MIC [18]: 50 µg/mL (≈ 67.7 µM); MIC [19]: 25 µg/mL (≈ 33.8 µM); MIC [20]: 25 µg/mL (≈ 33.8 µM); MIC [21]: 25 µg/mL (≈ 33.8 µM); MIC (Mycoplasma gallisepticum): 6.25 µg/mL (≈ 8.46 µM)
2 | CCC1OC(=O)CC(O)C(C)C(OC2OC(C)C(O)C(N(C)C)C2O)C(CC=O)CC(C)C(=O)C=CC(C)=CC1CSc1nnc(C)o1 (centres unmarked) [Compound 4] | 4 (≈ 5.75 µM) | 4 (≈ 5.75 µM) | 32 (≈ 46 µM) | 0.25 (≈ 0.359 µM) | > 100 | 12.6 | 0.25 (≈ 0.359 µM) | 64 (≈ 92 µM) | 8 (≈ 11.5 µM) | 0.5 (≈ 0.719 µM) | 0.5 (≈ 0.719 µM) | 0.25 (≈ 0.359 µM) | did not show activity | 0.78 (≈ 1.12 µM) | 12.5 (≈ 18 µM) | 1.56 (≈ 2.24 µM) | 12.5 (≈ 18 µM) | 0.39 (≈ 0.56 µM) | 6.25 (≈ 8.98 µM) | 6.25 (≈ 8.98 µM) | Number of deaths/number treated (Pasteurella multocida): 8/10; MIC [22]: 0.06 µg/mL (≈ 0.0862 µM); MIC ([6]; Streptococcus Group D X66, agar dilution, read-out: MIC): 0.5 µg/mL (≈ 0.719 µM); MIC (Escherichia coli N10; E. coli N10, agar dilution, read-out: MIC): > 128 µg/mL; MIC ([7]; K. pneumoniae KAE, agar dilution, read-out: MIC): > 128 µg/mL; MIC ([9]; S. epidermidis EPI1, agar dilution, read-out: MIC): 0.25 µg/mL (≈ 0.359 µM); MIC ([10]; S. aureus X400, methicillin-resistant strain, agar dilution, read-out: MIC): 0.5 µg/mL (≈ 0.719 µM); MIC (Escherichia coli EC14; E. coli EC14, agar dilution, read-out: MIC): > 128 µg/mL; MIC ([13]; S. aureus V41, penicillin-resistant strain, agar dilution, read-out: MIC): 0.5 µg/mL (≈ 0.719 µM); MIC [17]: 6.25 µg/mL (≈ 8.98 µM); MIC [18]: 12.5 µg/mL (≈ 18 µM); MIC [19]: 6.25 µg/mL (≈ 8.98 µM); MIC [20]: 3.12 µg/mL (≈ 4.48 µM); MIC [21]: 6.25 µg/mL (≈ 8.98 µM); MIC (Mycoplasma gallisepticum): 0.39 µg/mL (≈ 0.56 µM)
